In patent US20260265280A1, “Prevention/Treatment of Ischemic Reperfusion Injury” (Rev Therapeutics, priority 2023, published 2026):
≈ marks a conversion by molar mass, not a printed value. Where “and” joins values, the source holds several entries; their conditions need not be identical. Equal entries are not always repeated. Marks after values point to notes of the source that are not given here.

Assays:
[1] = Thermodynamic solubility assay (shake flask, HPLC-UV) in PBS; format: physicochemical; conditions: for solubility thermodynamic at 24 h: 25 °C, aqueous buffer, thermodynamic from solid
Protocol: Solubility Study: The thermodynamic solubility assay employed was the shake flask method followed by HPLC analysis. The method prepared a saturated solution of the compound, followed by an assay of the solution using HPLC and UV detection. […] About 18 mg compound powder was weighed and placed in a 2 mL glass vial, then PBS buffer was introduced into the vial to obtain a 30-60 mg/mL target concentration. This solution was vortexed for 2 minutes. The solutions were incubated and shook on an orbital shaker for 24 hr at room temperature (25±2° C.). About 500 μL solubility solution was transferred into a new MultiScreen filter plate (Membrane of polycarbonate), filtered by millipore vacuum manifold, and collected in the filtrate as the TS solution. The filtrate was diluted with PBS buffer by a factor of 20 fold to make it diluent. Three UV standard solutions (20, 200, 2000 μg/mL) were injected into HPLC from low to high concentration, followed by testing of the diluent. Testing samples were injected in duplicate. The filtrate was analyzed by HPLC equipped with UV, and the solubility was calculated based on acquired peak areas and dilution factors with a standard external method.

[2] = tested on: kidney ischemia-reperfusion injury; experiment: Rat bilateral short-warm kidney ischemia-reperfusion injury (IRI / AKI) system; format: in vivo, Male outbred Sprague-Dawley rats; conditions: oral 103 mg/kg
Protocol: Brief description of AKI Study: The study examined rats given oral compound Q8 three times at −1 hour, +10 hours, and 24 h post-lesion, or nine times over four days, at −1 hr, +10 hours and every morning and evening. The dose chosen was 103 mg/kg (0.134 mmol/kg). Control groups include a sham operation group receiving drug vehicle, peritoneum open but no ligature application to the kidney artery. A vehicle group in which the artery ligature was applied served as the lesion group. […] This chosen amount is also between the IC95 and the IC50 inhibition of Jnk activity in cell extracts and human PBMCs (Krenitsky et al. Bioorganic & Medicinal Chemistry Letters, 22(3), pp. 1433-1438). It is also similar to the oral Cavg exposure of compound Z at 60 mg/kg, which is an effective dose of compound Z in rat models of AKI (Grynberg et al. Am J Pathol 191:817-828, 2021).
Rat bilateral short-warm kidney ischemia-reperfusion injury (“IRI”) system: Male outbred Sprague-Dawley rats (approximately 300 g from the Monash Animal Research Platform), six/group, were anesthetized using ketamine/xylazine, and surgery performed with both renal pedicles clamped for 25 minutes (ischemia) then released (reperfusion) as previously described (Grynberg et al. Am J Pathol 191:817-828, 2021). […]
Staining used rabbit monoclonal antibodies recognizing collagen I (E8F4L, 1 in 400 dilutions; Cell Signaling Technology, Danvers, MA, USA), followed by biotinylated […] (BA-400, 1 in 500 dilutions; Thermo Fisher, Waltham, MA, USA), and the VECTASTAIN® Elite® ABC-HRP Kit (PK-6100). The interstitial collagen I deposition area was assessed in the outer medulla and cortex by image analysis, avoiding medium and large arteries, using cellSens software V1.18 (Olympus, Notting Hill, Victoria, Australia) as previously described (Leong et al. Toxins 13:700, 2021). […]
Statistical Analysis: Data are shown as means±1 SD. Data were analyzed by one-way analysis of variance with the Tukey multiple comparison tests using GraphPad Prism 9.0 software (GraphPad Software, San Diego, CA).

[3] = In vivo rat pharmacokinetic studies (cleavage of compounds into compound Z); conditions: for Compound Z Present in Plasma at 2 hr After i.p. dose: i.p. dose of compound Qx
Protocol: Rat pharmacokinetic study samples were used for PK characterization. Male Sprague-Dawley rats weighing 150-300 g were intraperitoneal (ip), intravenous (i.v.) dosed formulated in PBS, pH 7.4. The blood samples at several times post dosing were collected and advanced to plasma preparation with K2EDTA as an anticoagulant.
The blank plasma samples used for the PK characterization control were prepared from undosed rat groups. After IV administration, the amount of parent compound remaining at 0.5 hours after dosing was used as a measure of the cleavage rate. After IP administration, the amount of parent compound remaining at 2 hours after dosing was used as a measure of the cleavage rate. We sought compounds with >90% cleavage.

[4] = tested on: kidney ischemia-reperfusion injury; conditions: oral; Grynberg et al.; cited from earlier work
[5] = tested on: cJun phosphorylation; conditions: human skin; cited from earlier work
[6] = PBS buffer, PBS pH 7.4, shaken 24 hr at room temperature (25±2° C.)
[7] = PBS pH 7.4, shaken 24 hr at room temperature (25±2° C.)
[8] = studied at 1 mg/kg in PBS, linearly scaled to 2 mg/kg equivalent dose

O=P([O-])([O-])OCn1/c(=N\c2c(F)cc(F)cc2F)n([C@H]2CCOC2)c2nc(NC3CCC(O)CC3)ncc21.[Na+].[Na+] (stereo partly drawn) [Compound Q8, [[(8Z)-2-[(4-hydroxycyclohexyl)amino]-9-[(3S)-tetrahydrofuran-3-yl]-8-(2,4,6-trifluorophenyl)imino-purin-7-yl]methoxy-sodiooxy-phosphoryl]oxysodium]
improvement in solubility over known compound Z ([1]; PBS): 751 fold | solubility thermodynamic at 24 h [1, 6]: 45600 µg/mL | reduction of fibrosis component Coll histological staining ([2]; D21 post-lesion): 73% | reduction of tubular damage ([2]; Day 7 post-lesion, PAS stained sections, outer medulla): 65% | reduction of serum/plasma creatinine levels (kidney dysfunction) ([2]; three doses or nine doses over four days, vs. 1D vehicle): 87-88% | Compound Qx Present in Plasma at 2 hr After i.p. dose ([3]; studied at 29.8 mg/kg in PBS, linearly scaled to 2 mg/kg equivalent dose): 12^# ng/mL | concentration at 0.5 h ([3]; male, Sprague-Dawley, plasma, intravenous, 1 mg/kg): 21 ng/mL

O=P([O-])([O-])OP(=O)([O-])OC1CCC(Nc2ncc3nc(Nc4c(F)cc(F)cc4F)n([C@H]4CCOC4)c3n2)CC1.[Na+].[Na+].[Na+] (stereo partly drawn) [Compound Q9, [Disodiooxyphosphoryloxy-[4-[[9-[(3S)-tetrahydrofuran-3-yl]-8-(2,4,6-trifluoroanilino)purin-2-yl]amino]cyclohexoxy]phosphoryl]oxysodium]
solubility thermodynamic at 24 h [1, 7]: 19400 µg/mL | Compound Qx Present in Plasma at 2 hr After i.p. dose ([3]; studied at 2 mg/kg in PBS): BQL | Compound Qx Present in Plasma at 0.5 hr After i.v. dose [3, 8]: BQL

CC(=O)O[C@H]1CC[C@H](Nc2ncc3nc(Nc4c(F)cc(F)cc4F)n([C@H]4CCOC4)c3n2)CC1 [Compound Q10, [4-[[9-[(3S)-Tetrahydrofuran-3-yl]-8-(2,4,6-trifluoroanilino)purin-2-yl]amino]cyclohexyl] acetate]
solubility thermodynamic at 24 h [1, 6]: 75.2 µg/mL

CCOC(=O)n1/c(=N\c2c(F)cc(F)cc2F)n([C@H]2CCOC2)c2nc(N[C@H]3CC[C@H](O)CC3)ncc21 [Compound Q11]
solubility thermodynamic at 24 h [1, 6]: < 20 µg/mL

C[N+](C)(C)CCOC(=O)O[C@H]1CC[C@H](Nc2ncc3nc(Nc4c(F)cc(F)cc4F)n([C@H]4CCOC4)c3n2)CC1 [Compound Q12, trimethyl-[2-[4-[[9-[(3S)-tetrahydrofuran-3-yl]-8-(2,4,6-trifluoroanilino)purin-2-yl]amino]cyclohexoxy]carbonyloxyethyl]ammonium]
solubility thermodynamic at 24 h [1, 6]: 29600 µg/mL | concentration at 2 h ([3]; male, Sprague-Dawley, plasma, ip, 2 mg/kg): 214 ng/mL

CCOC(=O)OC1CCC(Nc2ncc3nc(Nc4c(F)cc(F)cc4F)n([C@H]4CCOC4)c3n2)CC1 (stereo partly drawn) [Compound Q13, Ethyl [4-[[9-[(3S)-tetrahydrofuran-3-yl]-8-(2,4,6-trifluoroanilino)purin-2-yl]amino]cyclohexyl] carbonate]
solubility thermodynamic at 24 h [1, 6]: < 20 µg/mL

CN(C)C(=O)O[C@H]1CC[C@H](Nc2ncc3nc(Nc4c(F)cc(F)cc4F)n([C@H]4CCOC4)c3n2)CC1 [Compound Q14, [4-[[9-[(3S)-tetrahydrofuran-3-yl]-8-(2,4,6-trifluoroanilino)purin-2-yl]amino]cyclohexyl] N,N-dimethylcarbamate]
solubility thermodynamic at 24 h [1, 6]: < 20 µg/mL

CC(=O)OCn1/c(=N\c2c(F)cc(F)cc2F)n([C@H]2CCOC2)c2nc(N[C@H]3CC[C@H](O)CC3)ncc21 [Compound Q16, [(8Z)-2-[(4-hydroxycyclohexyl)amino]-9-[(3S)-tetrahydrofuran-3-yl]-8-(2,4,6-trifluorophenyl)imino-purin-7-yl]methyl acetate]
solubility thermodynamic at 24 h [1, 6]: 114 µg/mL

O[C@H]1CC[C@H](Nc2ncc3nc(Nc4c(F)cc(F)cc4F)n([C@H]4CCOC4)c3n2)CC1 [Z, 4-[[9-[(3S)-tetrahydrofuran-3-yl]-8-(2,4,6-trifluoroanilino)purin-2-yl]amino]cyclohexanol]
solubility thermodynamic at 24 h [1, 6]: 60.6 µg/mL (≈ 135 µM) | effective dose in rat models of AKI [4]: 60 mg/kg | plasma concentration that achieved efficacy (suppression of cJun phosphorylation) [5]: 3.4 uM and 1560 ng/mL

Trimethyl-[2-oxo-2-[4-[[9-[(3S)-tetrahydrofuran-3-yl]-8-(2,4,6-trifluoroanilino)purin-2-yl]amino]cyclohexoxy]ethyl]ammonium [Compound Q15]
Thermodynamic Solubility in PBS [1, 7]: 17340 µg/mL | Compound Z Present in Plasma at 2 hr After i.p. dose ([3]; studied at 2 mg/kg in PBS): 26.5 ng/mL | Compound Qx Present in Plasma at 2 hr After i.p. dose ([3]; studied at 2 mg/kg in PBS): 125 ng/mL

[4-[[9-[(3S)-Tetrahydro furan-3-yl]-8-(2,4,6-trifluoroanilino)purin-2-yl]amino]cyclohexyl] disodium phosphate [Compound Q7]
compound still present at 2 hrs post-dosing ([3]; 2 hr post-dosing): 30% | Compound Z Present in Plasma at 2 hr After i.p. dose ([3]; studied at 2 mg/kg in PBS): 83.5 ng/mL | Compound Qx Present in Plasma at 2 hr After i.p. dose ([3]; studied at 2 mg/kg in PBS): 36 ng/mL | Compound Z Present in Plasma at 0.5 hr After i.v. dose ([3]; i.v. dose of compound Qx, studied at 1 mg/kg in PBS, linearly scaled to 2 mg/kg equivalent dose): 232 ng/mL | Compound Qx Present in Plasma at 0.5 hr After i.v. dose [3, 8]: 13 ng/mL
